The values below come from patent publication US20090208425A1, “TRANSMUCOSAL ADMINISTRATION OF 2,3-DIMETHOXY-5-METHYL-6-(10-HYDROXYDECYL)-1,4-BENZOQUINONE” (SANTHERA PHARMACEUTICALS (SCHWEIZ) AG, priority 2006, published 2009).

Series [1] can be described thus: Pharmacokinetics after sublingual (oromucosal) vs. oral delivery of idebenone micro-emulsion in dogs. The settings on record: for Cmax / Tmax / AUC(0-t): beagle, dog, mean; for AUC(0-t): read-out: AUC0-480 of idebenone (converted). The class given is in vivo, Beagle dogs. As for the experimental part:
Quantification of idebenone was performed by liquid chromatography (LC) coupled on-line with tandem mass spectrometry (MS/MS). Calibration samples were prepared in human plasma and quality control (QC) samples were prepared in dog plasma.
150 μl of dog plasma were treated with 10 μl of an EDTA solution, prepared by dissolution of 1245 mg EDTA-potassium salt in 33 ml of 1M NH4OAc, and 300 μl of Methanol. After vigorous shaking, samples were centrifuged for 45 minutes with 1960 RCF at 4° C. A 50 μl aliquot of the supernatant was injected into the LC-MS/MS system. All unknown, calibration and QC samples were subjected to the same assay procedure.
Idebenone was separated and quantified by HPLC-MS/MS: For HPLC, a Synergi™ 4μ MAX-RP (50×2 mm) column (Phenomenex, Schlieren, Switzerland) was used. Column temperature: 50° C. Mobile phase A: water+30 mM NH4OAc; mobile phase B: MeOH/H2O 100/3 (v/v)+30 mM NH4OAc, gradient elution (table 4). Flow: 250 μl/min and 400 μl/min.
Once separated, idebenone was quantified by ESI-MS/MS (API 4000, Perkin-Elmer-Europe BV, Rotkreuz, Switzerland) in positive mode.
Idebenone conjugates such as glucuronates and sulphates have been quantified after acidic hydrolysis as described by R. Artuch, C. Colomé, M. A. Vilaseca, A. Aracil. M. Pineda, J. Neurosci. Meth. 115 (2002), 63-66.
Plasma levels of idebenone were studied after the administration of a micro-emulsion, prepared as described in example 1, to dogs (n=3). The sublingual administration of 4 mg/kg was compared with 40 mg/kg oral administration in a cross-over design. Blood samples were collected for 8 hours after administration. Concentrations of idebenone in plasma were measured by HPLC-MS/MS as described in example 4 and pharmacokinetic parameters were calculated.
The pharmacokinetic analysis included maximum plasma concentration (Cmax), the time when maximum plasma concentration was observed (Tmax), and the area under the plasma concentrations versus time curve from time 0 h to 480 min (AUC0-480min). The relative bioavailability of idebenone after sublingual administration compared to the oral administration was calculated for each dog from normalized (1 mg/kg) AUC values. The AUC ratios of the metabolites were also calculated. In addition, Cmax ratios, normalized to a 1 mg/kg dose, were calculated.

The conditions of series [2]: 536 patients, up to 360 mg idebenone t.i.d.; cited from earlier work.
The nature of series [3]: First-pass hepatic metabolism of idebenone after oral administration. Format: in vivo. The settings on record: after absorption in the gut (oral administration). From the text:
As a lipophilic compound idebenone is well absorbed in the gastrointestinal tract after conventional oral administration, which is the normal route for administering said compound. Dosage forms such as tablets or capsules have been used in clinical trials and as marketed product. In the course of our investigations on the pharmacological profile of idebenone, we discovered that the compound, after being absorbed in the gut, is metabolized very quickly during its first passage through the liver (“first-pass-effect”). […] Hepatic metabolism of idebenone results in side chain oxidation, reduction of the quinone ring, sulphate and glucuronide conjugation and subsequent renal excretion. The high first-pass-effect leads to a fast reduction of pharmacologically active plasma levels of free idebenone. Because of this strong first pass metabolism, oral administration of idebenone requires high doses of the compound to achieve pharmacologically efficacious plasma levels in the body. Said high doses can result in unwanted side effects such as diarrhea.

Where [4] appears, read: 4 mg/kg oro-mucosal (sublingual), micro-emulsion of example 1, dogs n=3, plasma.
The mark [5] stands for this setting: 40 mg/kg oral (p.o.), dogs n=3, plasma.
Where [6] appears, read: oromucosal (4 mg/kg) vs. oral (40 mg/kg), normalized to a 1 mg/kg dose, dogs.

The Cmax is the maximum level reached in the sampled fluid or tissue. The term Tmax denotes the time from dosing to the highest level.

Where two headings read alike, the source gives them in different places.

As to `COC1=C(OC)C(=O)C(CCCCCCCCCCO)=C(C)C1=O` [idebenone, 2,3-dimethoxy-5-methyl-6-(10-hydroxydecyl)-1,4-benzoquinone], in series [1] (setting [4]), the Cmax was determined as 106 ng/mL, the time of peak concentration (Tmax) is 6.3 min and the AUC(0-t) is 21.1 ng·h/mL. For the same compound, in series [1] (setting [5]), the Cmax was found to be 31.9 ng/mL, the Tmax is 22.7 min and the AUC(0-t) is 18 ng·h/mL. In addition, in series [1] (setting [6]), the “AUC ratio, idebenone (normalized for dose)” value is 11.1 and the “Cmax ratio, idebenone (normalized for dose)” value was determined as 36.8. In addition, the “treatment emergent adverse events compared to placebo” value in series [2] is on record as “no treatment emergent adverse events except some gastrointestinal irritations as well as a slight increase in orthopedic events”. Further, the “idebenone metabolized during its first passage through the liver” value in series [3] is “more than 98%”.
